We go through 3 molecules from patent publication US20070015742A1, “Porphyrin derivatives” (priority 2003, published 2007).

The subject of data set [1] is mouse colon adenocarcinoma cell line Colo26. The settings on record: colo26 cells; for cell kill on irradiation: irradiation with 100 J cm^-2 white light; for photodynamic activity: 100 J cm^-2 white light.
Method: Evaluation of in vitro Photodvnamic Tumour Cell Kill
The non-metastasing mouse colon adenocarcinoma cell line Colo26 was maintained in monolayer culture in RPMI 1640 glutamax medium supplemented with 10% heat-inactivated foetal calf serum, 100 U ml^−1 penicillin and 100 mg ml^−1 streptomycin. Cells grown to confluence were separated by trypsinisation to produce a suspension of 1.39 million cells per ml. A sample of 2.16 ml of this cell suspension was diluted to 50 ml with CM10 medium to give suspensions of 60,000 cells per ml. 100 μl of this suspension containing 6000 cells was added to each of the 60 inner wells of two 96-well culture plates. The outer wells of each plate were filled with sterile water. This was done to avoid errors resulting from the loss by evaporation of the rather small volumes of cell culture medium. The cells were incubated at 37° C. and 5% CO2 in a humidified incubator for 24 hours. A further 100 μl of cell culture medium containing a range of concentrations of each photosensitiser and tetrahydoflran (THF) vehicle was then added to groups of six wells. Tetrahydrofuran was chosen as solvent because it is relatively freely miscible with water and a pilot experiment had shown that incubation of cells for 48 hours with 0.5-1% THF had no effect on cell growth. An initial stock solution of 200 μl of each photosensitiser in THF was prepared and this solution used to prepare a series of sub-stock solutions in cell culture medium CM10 for addition to the tumour cell cultures.
After 20 hours of incubation with the cells, the medium containing the sensitiser and vehicle was removed and the cells washed once with buffer solution at 37° C. before the addition of fresh cell culture medium without photosensitiser or vrhicle. One of the two cell culture plates was then protected from light with aluminium foil and placed alongside the other plate which was irradiated with 100 joules cm^−2 of full-spectrum white light from an Applied Photophysics Irradiator. The light was delivered to the base of the 96-well plate through a glass platform (which served to filter short-wavelength ultraviolet light) as a 20 cm diameter spot. After irradiation both plates were returned to the incubator for a further 18 hours.
Cell growth inhibition following incubation with each photosensitiser and irradiation was determined using the European Union approved Neutral Red photocyiotoxicity protocol (Annexe II to Directive 2000/33/EC) adapted for visible light irradiation and the use of colo26 cells.
A short description of data set [2]: molar extinction spectrum in THF. It is filed as physicochemical. The source says: The absorbance peaks and molar extinction coefficients are shown below in Table 2.
The Absorbance peaks and molar extinction coefficients are shown below in Table 3.
The absorbance peaks and molar extinction coefficients are shown below in Table 4.

The conditions of data set [3]: in toluene, reference standard whose quantum yield is known; cited from earlier work.
Setting [4] is: concentrations of 0.5 μM and above.

The structures appear in SMILES notation. Where two headings read alike, the source gives them in different places.

Turning to `CCCCCCCCCCCCCCCCOc1ccc(C2=C3C=CC(=N3)C(c3ccccc3)=c3ccc([nH]3)=CC3=NC(=CC4=CC=C2S4)C=C3)cc1` [porphyrin (8), 5-(4-hexadecyloxyphenyl)-10-(phenyl)-15,20-H-21-thiaporphryin], the “cell kill on irradiation” value is recorded as “approaching total cell kill” in data set [1] (2 μM and above); “substantial cell kill” in data set [1] (setting [4]). For the same molecule, the photodynamic activity result in data set [1] was “photodynamic activity”. Further, the “molar extinction coefficient ε” value in data set [2] (peak wavelength 418, THF) was 300,000 1 mol^−1 cm^−1; in data set [2] (peak wavelength 502, THF) it was 29,800 1 mol^−1 cm^−1; in data set [2] (peak wavelength 532, THF), 5,300 1 mol^−1 cm^−1; in data set [2] (peak wavelength 606, THF), 4,900 1 mol^−1 cm^−1; in data set [2] (peak wavelength 668, THF), 3,000 1 mol^−1 cm^−1.
`C=Cc1c(C)c2cc3nc(c4c5[n-]c(cc6nc(cc1[n-]2)C(C)=C6CC)c(C)c5C(=O)[C@@H]4C(=O)OC)[C@@H](CCC(=O)OC/C=C(\C)CCC[C@H](C)CCC[C@H](C)CCCC(C)C)[C@@H]3C.[Mg+2]` [chlorophyll A]: the “singlet oxygen quantum yield of reference” value in data set [3] is recorded as 0.6.
Regarding `CCCCCCCCCCCCCCCCOc1ccc(-c2c3nc(c(-c4ccccc4)c4ccc([nH]4)c(C#Cc4ccccn4)c4nc(c(C#Cc5ccccn5)c5ccc2s5)C=C4)C=C3)cc1` [porphyrin (10), 5-(4-hexadecyloxyphenyl)-10-(phenyl)-15,20-(2-ethynylpyridine)-21-thiaporphyrin], the “cell kill on irradiation” value in data set [1] (2 μM and above) is given as “approaching total cell kill”; in data set [1] (setting [4]), “substantial cell kill”. The photodynamic activity entry in data set [1] was “photodynamic activity”. Moreover, the “molar extinction coefficient ε” value is 378,985 1 mol^−1 cm^−1 in data set [2] (peak wavelength 456, THF); 24,330 1 mol^−1 cm^−1 in data set [2] (peak wavelength 537, THF); 40,385 1 mol^−1 cm^−1 in data set [2] (peak wavelength 589, THF); 6,335 1 mol^−1 cm^−1 in data set [2] (peak wavelength 659, THF); 11,635 1 mol^−1 cm^−1 in data set [2] (peak wavelength 708, THF); 13,320 1 mol^−1 cm^−1 in data set [2] (peak wavelength 724, THF).
